Experimental data published in patent publication US11999718B2, “Pyrazole derivatives” (Aptabio Therapeutics Inc., priority 2021, dated 2024).

Key:
NHLF cells = assay: ROS production induced by PMA in NHLF cells; type: cell-based, human; conditions: FIG. 1
From the text: (§1) In order to confirm the effect of the compounds of Synthetic examples on ROS production from fibroblasts and specific substrate cells, ROS production was induced by stimulation of PMA (phorbol 12-myristate 13-acetate), TGF-β1, palmitate or high concentration-glucose, or the like, in HL-60 cells differentiated into neutrophil cells by DMSO treatment, NHLF (normal human lung fibroblast, Lonza), LX-2 (human hepatic stellate cells, Sigma), ARPE19 (human retinal pigment epithelial cell, ATCC), and KEL-FIB (Keloid fibroblast, ATCC) cells, and under this condition, the inhibitory effect of ROS production of the compounds of Synthetic Examples was observed.
(§2) The NHLF (normal human lung fibroblast, Lonza), LX-2 (human hepatic stellate cells, Sigma), ARPE19 (human retinal pigment epithelial cell, ATCC), KEL-FIB (keloid fibroblast, ATCC) cells were suspended in a culture medium containing 10% FBS and aliquoted on a 96 well plate and then cultured under the condition of 5% CO2, 37° C. for 24 hours. After pre-treating the compounds of Synthetic examples at a concentration of 10, 20, 30, 40, 60 and 80 μM for 30 minutes to 1 hour, the ROS stimulus was treated to each well containing the cells and drug. After additional culturing for 48 hours, the ROS production level was confirmed using L-012 or DCF-DA.

αSMA = assay: Expression of αSMA induced by TGF-β1 (immunocytochemistry); type: cell-based, human; conditions: TGF-β1 10 ng/ml, 10 μM compound, FIG. 4
From the text: In order to confirm whether the compounds of Synthetic examples of the present invention affect differentiation of fibroblasts into myofibroblasts, the inhibitory effect of the compounds of Synthetic examples on increase in expression of αSMA (biomarker for confirming differentiation into myofibroblasts) induced by TGF-β1 on HFF-1 (human foreskin fibroblast, ATCC), NHLF (normal human lung fibroblast, Lonza), LX-2 (human hepatic stellate cells, Sigma), ARPE19 (human retinal pigment epithelial cell, ATCC), and KEL-FIB (Keloid fibroblast, ATCC) cells was to be observed.
Each cell was suspended in a DMEM medium containing 10% FBS and aliquoted at a concentration of 1×10^4 to 1.5×10^5 cells/well in a 4-well chamber slide (Nunc) and the compounds of Synthetic examples and TGF-β1 (both TGF β1 and TGF-β have the same meaning) were treated to prepare cells to be used for confirming αSMA expression. The confirmation of αSMA expression in the prepared cells was performed by immunocytochemistry as follows. For the cells, fixation with 4% paraformaldehyde for 10 minutes and permeabilization using 0.1% Triton x-100 were performed, and then processes of treating the primary antibody (anti-αSMA Ab, 1:200, at 4° C. for 16 hours) and secondary antibody (Alexa-594 conjugated Ab, 1:800, at a room temperature for 1 hour) against αSMA were progressed in order, and then the expression level of αSMA was observed using a fluorescence microscope.
FIG. 3 observes the effect of treating various compounds of Synthetic examples by 10, 20 and 40 μM, after inducing αSMA expression by treatment of TGF-β1(10 ng/ml) into HFF cells.

HFF-1 cells = assay: Collagen gel contraction induced by TGF-β1 in HFF-1 cells; type: cell-based, human; conditions: HFF-1 cells in collagen gel, TGF-β1 10 ng/ml, 72 hours, FIG. 7
From the text: In order to confirm the effect of the compounds of Synthetic examples on differentiation of fibroblasts into myofibroblasts, the inhibitory effect of the compounds of Synthetic examples on the phenomenon of contraction of gel induced by interaction of human foreskin fibroblasts (HFF-1, ATCC) and collagen was observed.
The mixed solution of the HFF-1 cells and collagen (bovine type I collagen) prepared at a concentration of 3×10^6 cells/ml was aliquoted in a 24 well plate, respectively, and then cultured under the condition of 5% CO2, 37° C. for 1 hour to induce gel polymerization. Then, after suspending the gel attached on the plate from the plate using a spoon, a medium comprising TGF-β1 and Synthetic example compounds was added to each well. After culturing for 72 hours, the Synthetic example compounds were treated by 10, 20, 30, 40, 60 and 80 μM to measure the size of the gel, and thereby, the degree of contraction of the gel by drug treatment was confirmed.

[1] = system: HL-60 cells differentiated into neutrophil cells; assay: ROS production induced by PMA in HL-60 cells differentiated into neutrophil cells; type: cell-based; conditions: Homo sapiens, 0.5 h; differentiated HL-60 cells, compounds 0.5 uM (0.5 mM in the source) for 30 minutes, 200 nM PMA, L-012 luminescence
IL-1β = assay: Expression of IL-1β induced by LPS in human-derived fibroblasts (RT-PCR); type: cell-based; conditions: LX2, NHLF, ARPE19 and KEL-Fib cells, LPS 1 μg/ml 6 hours, 10 μM compound, FIG. 8
Protocol: After inoculating 2×10^5 cells in a 6 well plate and then culturing for 24 hours, they were further cultured in a serum-free culture solution for 16 hours and then the Synthetic example 1 Compound was pre-treated for 20 minutes according to each condition and inflammation reaction was induced with LPS (1 μg/ml) for 6 hours. The expression of IL-1β was confirmed using RT-PCR. Total RNA was separated from the cells using RNeasy mini kit (Qiagen), and for the separated RNA 2 ug, cDNA was synthesized using PrimeScript™ II 1st strand cDNA synthesis kit (TaKaRa) and then PCR was performed with AccuPower® PCR PreMix (Bioneer) to amplify genes. The nucleotide sequences for target primers are as follows. IL-1β (forward: 5′-[…]-3′(SEQ ID NO: 1), reverse: 5′-[…]-3′(SEQ ID NO: 2)); GAPDH (forward: 5′-[…]-3′(SEQ ID NO: 3), reverse: 5′-[…]-3′(SEQ ID NO: 4)); β-actin (forward: 5′-[…]-3′(SEQ ID NO: 5), reverse: 5′-[…]-3′(SEQ ID NO: 6)). The PCR product was confirmed by electrophoresis in 1.5% agarose gel.

LX-2 cells = assay: ROS production induced by PMA in LX-2 cells; type: cell-based, human; conditions: FIG. 1
From the text: as §1, §2

IL-8 = assay: Expression of IL-8 in pancreatic cancer associated fibroblasts (ELISA); type: cell-based, human; conditions: P.CAF cells, 48 hours treatment, FIG. 6
Protocol: (§3) In order to confirm the effect of the compounds of Synthetic examples of the present invention on inflammation reaction in cancer associated fibroblasts, whether the expression of IL6 and IL8 was inhibited by the compounds of Synthetic examples in pancreatic cancer associated fibroblasts (P.CAF) was observed.
(§4) After inoculating 1.5×10^5 cells in a 6 well plate and then culturing in P.CAF complete media for 48 hours, the compounds of Synthetic examples were treated by 10, 20, 30, 40, 60 and 80 μM for 48 hours according to each condition, and then the expression of IL-6 and IL-8 was confirmed by performing ELISA with Quantkine ELISA kit (R&D systems) as follows.
(§5) 100 μl of the culture solution in which the compounds of Synthetic examples were treated for 48 hours was added to the microplate strip for analysis including a 100 μl assay diluent and left at a room temperature for 2 hours and then the contents were removed, and then it was washed with 400 μl wash buffer 4 times. 200 μl of a human IL-6 or IL-8 conjugate was added and left at a room temperature for 2 hours and then the contents were removed, and then it was washed with 400 μl wash buffer 4 times. 200 μl of substrate solution was added and left at a room temperature for 20 minutes and then 50 μl of stop solution was added, and the absorbance at a wavelength of 450 nm was measured within 30 minutes to confirm the expression level of IL-6 and IL-8.

IL-6 = assay: Expression of IL-6 in pancreatic cancer associated fibroblasts (ELISA); type: cell-based, human; conditions: P.CAF cells, 48 hours treatment, FIG. 5
Protocol: as §3, §4, §5

## CN(Cc1ccccc1)C1CCc2nn(-c3ccccn3)c(O)c2C1 (centres unmarked) [Compound 1, 5-(Benzylmethylamino)-2-(pyridin-2-yl)-4,5,6,7-tetrahydro-2H-indazol-3-ol]
NHLF cells
  ROS production induced by PMA: inhibited
αSMA; ARPE19 cells
  increase in expression of αSMA induced by TGF-β1: significantly inhibited
αSMA; KEL-FIB cells
  increase in expression of αSMA induced by TGF-β1: significantly inhibited
αSMA; LX-2 cells
  increase in expression of αSMA induced by TGF-β1: significantly inhibited
αSMA; NHLF cells
  increase in expression of αSMA induced by TGF-β1: significantly inhibited
HFF-1 cells
  contraction of the gel induced by TGF-β1: effectively inhibited
[1]
  inhibition at 0.5 µM: > 70%
IL-1β
  IL-1β induced by LPS: effectively inhibited in a concentration-dependent manner
LX-2 cells
  ROS production induced by PMA: inhibited
IL-8
  IL-8 expressed in P.CAF: effectively inhibited
IL-6
  IL-6 expressed in P.CAF: effectively inhibited
